Common to all, as to format: in vivo
Experiment [1] deals with beet armyworm (Spodoptera exigua). The experiment is described as follows: Insecticidal test for beet armyworm (treated lepidopteran diet). The following applies: 2nd instar larvae, 5 days, rating of % Control; for pest or weed control at 400 ppm: Spodoptera exigua, 120 h, read-out: BAW, activity at 400 ppm against beet armyworm. As to the method: (§1) Insecticidal test for tobacco budworm (Heliothis virescens), beet armyworm (Spodoptera exigua), and cabbage looper (Trichoplusia ni).
(§2) To prepare test solution, the test compound was formulated at 400 ppm in 7.5 mL of 2 acetone: 1 tap water. 250 µL of the test solution was pipetted upon the surface of 8 mL of lepidopteran diet (modified Shorey) contained in each of five one-ounce plastic cups (one cup = 1 replication). […] After airdrying, the treated leaf discs were placed individually into one-ounce plastic cups. Each dried, treated cotton cotyledon disc was infested with a 2nd instar tobacco budworm larva, and each cabbage leaf disc was infested with a 2nd instar cabbage looper larva. Cups containing the treated substrates and larvae were capped and then held in a growth chamber at 25 °C, 50-55% RH, and 14 hr light: 10 hr dark for 5 days.

The test system of experiment [2] is cabbage looper (Trichoplusia ni). The experiment is described as follows: Insecticidal test for cabbage looper (leaf-dip, cabbage leaf discs). The note with it: dipped cabbage leaf discs, 2nd instar larvae, 5 days, rating of % Control; for pest or weed control at 400 ppm: Trichoplusia ni, foliar, 120 h, read-out: CL, activity at 400 ppm against cabbage looper. The procedure: as §1, §2

For experiment [3], the system named is cotton aphid (Aphis gossypii). The experiment is described as follows: Insecticidal test for cotton aphid (spray on infested squash cotyledons). The following applies: 50 ppm spray, all life stages, 3 days, rating of % Control. The procedure:
Insecticidal test for cotton aphid (Aphis gossypii)
To prepare spray solutions, 1 mg of each test compound was dissolved into 1 mL of a 90:10 acetone:ethanol solvent. This 1 mL of chemical solution was added to 19 mL of water containing 0.05% Tween 20 surfactant to produce a 50 ppm spray solution.
Squash cotyledons were infested with cotton aphid (all life stages)16-20 hours prior to application of spray solution. The solution was sprayed on both sides of each infested squash cotyledon (0.5 mL x 2 each side) with a sweeping action until runoff. The plants were allowed to air dry and held for 3 days in a controlled room at 26 °C and 40% RH after which time the test was graded. Grading was by actual count using a dissecting microscope and comparison of test counts to the untreated check.

For experiment [4], the system named is tobacco budworm (Heliothis virescens). The experiment is described as follows: Insecticidal test for tobacco budworm (leaf-dip, cotton cotyledon discs). The following applies: dipped cotton cotyledon discs, 2nd instar larvae, 5 days, rating of % Control; for pest or weed control at 400 ppm: Heliothis virescens, 120 h, read-out: TBW, activity at 400 ppm against tobacco budworm. The procedure:
as §1, §2

Experiment [5] concerns two-spotted spider mite (Tetranychus urticae). The experiment is described as follows: Insecticidal test for two-spotted spider mite, ovicide method. The following applies: for pest or weed control: Tetranychus urticae, read-out: SM, activity against two-spotted spider mite. As to the method:
Insecticidal test for two-spotted spider mite (Tetranychus urticae)
Ten adult female two-spotted spider mites were placed on eight 2.2 cm leaf discs of cotton leaf, allowed to oviposit over 24 hours, and thereafter removed. […] Discs were placed on an agar substrate and held at 24 °C and 90% RH for 6 days.

The subject of experiment [6] is Sweetpotato Whitefly (Bemisia tabacia). The experiment is described as follows: Insecticidal test for sweetpotato whitefly (spray on cotton plants). The note with it: 200 ppm spray, large nymphs counted after 13 days, rating of % Control; for pest or weed control at 200 ppm: Bemisia, 312 h, read-out: WF, activity at 200 ppm against whitefly. As to the method: Insecticidal test for Sweetpotato Whitefly (Bemisia tabacia)
Four mg of each test compound were dissolved by adding 4 mL of a 90:10 acetone:ethanol solvent mixture to the vial containing the sample compound. This solution was added to 16 mL of water containing 0.05% Tween 20 surfactant to produce 20 mL of a 200 ppm spray solution.
Five-week-old cotton plants reared in a greenhouse were stripped of all foliage except for the two uppermost true leaves that were greater than 5 cm in diameter. These plants were then placed into a laboratory colony of whiteflies for two days for oviposition by the colony females. All whiteflies were then removed from the test plants with pressurized air. The spray solution was then applied to the test plants with a hand-held syringe fitted with hollow cone nozzle. One mL spray solution was applied to each leaf top and bottom for a total of 4 mL per plant. Four replications of each test compound utilized a total of 16 mL spray solution. Plants were air dried and then placed in a holding chamber (28 °C and 60% RH) for 13 days. Compound efficacy was evaluated by counting, under an illuminated magnifying glass, the number of large nymphs (3rd-4th instar) per leaf
Percent control based on reduction of large nymphs of a test compound compared to solution-only (no test compound) sprayed plants is reported in Table 1-8.

The mark [7] stands for this setting: foliar, 144 h, ovicide method, cotton leaf discs, 6 days, rating of % Control.
The mark [8] stands for this setting: ovicide method, cotton leaf discs, 6 days, rating of % Control.

Take `C[C@@H]1OC(c2c(F)cccc2Cl)=N[C@@H]1c1ccc(-c2ccc(C(F)(F)F)cc2)cc1` (mixture of isomers) [Compound 4, (4R,5S)- and (4S,5R)-2-(2-chloro-6-fluorophenyl)-5-methyl-4-[4'-(trifluoromethyl)-1,1'-biphenyl-4-yl]-4,5-dihydro-1,3-oxazole]: the pest or weed control at 400 ppm in experiment [1], in experiment [2] and in experiment [4] was 90 to 100% each time. Moreover, the “CA, activity at 50 ppm against cotton aphid” value (shortened to “CA, activity at 50 ppm”) in experiment [3] is “A (90-100)”. The pest or weed control in experiment [5] (setting [7]) lay within 90 to 100%.

As to `C[C@H]1OC(c2c(F)cccc2F)=N[C@@H]1c1ccc(I)cc1` (mixture of isomers) [Compound 22, (4R, 5R)- and (4S,5S)-4-(4-iodophenyl)-2-(2,6-difluorophenyl)-5-methyl-4,5-dihydro-1,3-oxazole], the pest or weed control at 400 ppm in experiment [1] is 90 to 100%; in experiment [2], less than 50%. Further, the “CA, activity at 50 ppm” value in experiment [3] is “A (90-100)”. Moreover, the pest or weed control in experiment [5] (setting [7]) fell in the range of 90 to 100%.

As to `C[C@H]1OC(c2c(F)cccc2F)=N[C@@H]1c1ccc(Br)cc1` (mixture of isomers) [Compound 24, (4R,5R)- and (4S,5S)-4-(4-bromophenyl)-2-(2,6-difluorophenyl)-5-methyl-4,5-dihydro-1,3-oxazole], the pest or weed control at 400 ppm in experiment [2] and in experiment [4] was less than 50% throughout. The “CA, activity at 50 ppm” value in experiment [3] is reported as “A (90-100)”. Besides, in experiment [5] (setting [7]), the pest or weed control fell in the range of 90 to 100%.

For `C[C@H]1OC(c2c(F)cccc2F)=N[C@@H]1c1ccc(-c2ccc(OC(F)(F)F)cc2)cc1` (mixture of isomers) [Compound 27, (4R,5R)- and (4S,5S)-2-(2,6-difluorophenyl)-4-(4'-trifluoromethoxy-1,1'-biphenyl-4-yl)-5-methyl-4,5-dihydro-1,3-oxazole], the pest or weed control at 400 ppm in experiment [1] is 90 to 100%; in experiment [2], 90 to 100%; in experiment [4], 80 to 89%. Moreover, the “CA, activity at 50 ppm” value in experiment [3] is given as “E (50-59)”. For the same molecule, in experiment [5] (setting [7]), the pest or weed control is 90 to 100%.

For the molecule `CCOc1ccc(-c2ccc([C@@H]3N=C(c4c(F)cccc4F)O[C@H]3C)cc2)cc1` (mixture of isomers) [Compound 33, (4S,5S)- and (4R,5R)-2-(2,6-difluorophenyl)-4-(4'-ethoxy-1,1'-biphenyl-4-yl)-5-methyl-4,5-dihydro-1,3-oxazole], the results for the pest or weed control at 400 ppm in experiment [1], in experiment [2] and in experiment [4] were 90 to 100%, 90 to 100% and 80 to 89%, respectively. In addition, the pest or weed control in experiment [5] (setting [7]) was 80 to 89%.

Consider `Cc1cc(Br)ccc1[C@H]1N=C(c2c(F)cccc2F)O[C@H]1C` (mixture of isomers) [Compound 38, (4R,5S)- and (4S,5R)-4-(4-bromo-2-methylphenyl)-2-(2,6-difluorophenyl)-5-methyl-4,5-dihydro-1,3-oxazole], for which the pest or weed control in experiment [5] (setting [7]) was 60 to 69%. Moreover, the pest or weed control at 200 ppm in experiment [6] was less than 50%.

For `CCOc1ccc(-c2ccc([C@H]3N=C(c4c(F)cccc4F)O[C@H]3C)c(C)c2)cc1` (mixture of isomers) [Compound 41, (4R,5S)- and (4S,5R)-2-(2,6-difluorophenyl)-4-(4'-ethoxy-3-methyl-1,1'-biphenyl-4-yl)-5-methyl-4,5-dihydro-1,3-oxazole], the pest or weed control at 400 ppm in experiment [1], in experiment [2] and in experiment [4] was 90 to 100% in each case. Besides, in experiment [5] (setting [7]), the pest or weed control is 60 to 69%.

`Cc1cc(-c2ccc(C(F)(F)F)cc2)ccc1[C@@H]1N=C(c2c(F)cccc2F)O[C@H]1C` (mixture of isomers) [Compound 43, (4S,5S) - and (4R,5R)-2-(2,6-difluorophenyl)-5-methyl-4-[3-methyl-4'-(trifluoromethyl)-1,1'-biphenyl-4-yl]-4,5-dihydro-1,3-oxazole]: the pest or weed control at 400 ppm in experiment [1], in experiment [2] and in experiment [4] was 90 to 100% in each case. Further, the pest or weed control at 200 ppm in experiment [6] is less than 50%.

As for `CCOc1ccc(-c2ccc([C@@H]3N=C(c4c(F)cccc4F)O[C@H]3C)c(C)c2)cc1` (mixture of isomers) [Compound 45, (4S,5S)- and (4R,5R)-2-(2,6-difluorophenyl)-4-(4'-ethoxy-3-methyl-1,1'-biphenyl-4-yl)-5-methyl-4,5-dihydro-1,3-oxazole], the pest or weed control at 400 ppm in experiment [1], in experiment [2] and in experiment [4] was 90 to 100% each time. In addition, in experiment [5] (setting [7]), the pest or weed control is less than 50%.

Take `C[C@@H]1OC(c2c(F)cccc2F)=N[C@@H]1c1ccc(I)cc1` (racemic) [Compound 1, (4R,5S)- and (4S,5R)-4-(4-iodorphenyl)-2-(2,6-difluorophenyl)-5-methyl-4,5-dihydro-1,3-oxazole]: the “CA, activity at 50 ppm” value in experiment [3] is listed as “A (90-100)”. In addition, the “SM, activity at 2.5 ppm against two-spotted spider mite” value (“SM, activity at 2.5 ppm” below) in experiment [5] (foliar, 144 h) was “A (90-100)”.

With `C[C@H]1OC(c2c(F)cccc2F)=N[C@H]1c1ccc(-c2ccc(OC(F)(F)F)cc2)cc1` (stereo in doubt) [Compound 49, (4S,5R)-2-(2,6-difluorophenyl)-5-methyl-4-[4'-(trifluoromethoxy)-1,1'-biphenyl-4-yl]-4,5-dihydro-1,3-oxazole], the “BAW, activity at 400 ppm against beet armyworm” value in experiment [1] is given as “A (90-100)”. Moreover, the “CL, activity at 400 ppm against cabbage looper” value in experiment [2] was “A (90-100)”. In addition, the “SM, activity at 2.5 ppm” value in experiment [5] (setting [8]) is reported as “A (90-100)”. In addition, the “WF, activity at 200 ppm against whitefly” value in experiment [6] is reported as “B (80-89)”.

Take `C[C@@H]1OC(c2c(F)cccc2F)=N[C@@H]1c1ccc(-c2ccc(OC(F)(F)F)cc2)cc1` (stereo in doubt) [Compound 51, (4R,5S)-2-(2,6-difluorophenyl)-5-methyl-4-[4'-(trifluoromethoxy)-1,1'-biphenyl-4-yl]-4,5-dihydro-1,3-oxazole]: the pest or weed control at 400 ppm in experiment [1] is 90 to 100%; in experiment [2], 90 to 100%; in experiment [4], 80 to 89%. Besides, in experiment [3], the “CA, activity at 50 ppm” value was “F (less than 50)”. Further, the pest or weed control in experiment [5] (setting [7]) was in the range of 90 to 100%.

In the case of `C[C@@H]1OC(c2c(F)cccc2F)=N[C@H]1c1ccc(Br)cc1` [Compound 46, (4S,5S)-4-(4-bromophenyl)-2-(2,6-difluorophenyl)-5-methyl-4,5 dihydro-1,3-oxazole], the “CA, activity at 50 ppm” value in experiment [3] is “A (90-100)”. Besides, the pest or weed control in experiment [5] (setting [7]) was in the range of 90 to 100%.

In the case of `C[C@H]1OC(c2c(F)cccc2F)=N[C@@H]1c1ccc(-c2ccc(OC(F)(F)F)cc2)cc1` [Compound 53, (4R,5R)-2-(2,6-difluorophenyl)-5-methyl-4-[4'-(trifluoromethoxy)-1,1'-biphenyl-4-yl]-4,5-dihydro-1,3-oxazole], the “BAW, activity at 400 ppm against beet armyworm” value in experiment [1] is recorded as “A (90-100)”. Also, the “CL, activity at 400 ppm against cabbage looper” value in experiment [2] is recorded as “A (90-100)”. Besides, the “CA, activity at 50 ppm” value in experiment [3] is “F (less than 50)”. For the same molecule, the “TBW, activity at 400 ppm against tobacco budworm” value in experiment [4] was “B (80-89)”. Also, the “SM, activity at 2.5 ppm” value in experiment [5] (setting [8]) is reported as “A (90-100)”.

The values above are taken from patent EP1397353B1, “2-(2,6-DISUBSTITUTED PHENYL)-4-ARYL-5-ALKYL-1,3-OXAZOLINE COMPOUNDS USEFUL AS INSECTICIDES AND ACARICIDES” (Dow AgroSciences LLC, priority 2001, dated 2003).
